A melting point compilation (Tetko et al.; mined from patent text by program, amines drawn as free bases though some values may be those of a salt)

First: CCOC1CC2(C)C(CCC3C2C(=O)CC2(C)C3CCC23OCCO3)CC1O (configuration not stated)
Second: COC(=O)c1ccccc1NC(=O)OC1CC2C(=O)NC3(C(=O)NS(=O)(=O)C4CC4)CC3C=CCOCCCC(NC(=O)OC(C)(C)C)C(=O)N2C1 (configuration not stated)
The melting point of the first is lower: 142 to 145 °C for the first, 147 to 149 °C for the second.

Compared with O=c1nc(Cc2ccccc2)nc2n(C3CCCC3)[nH]c(Cc3ccccc3)c1-2, Cc1c(-c2ccccc2)c(Cl)nc2ccccc12 is lower in melting point: 204 to 206 °C for the first, 88 to 90 °C for the second.

First: CC(C)(CCn1ccnc1)NCC(O)c1ccc(OCc2ccccc2)c(NC(N)=O)c1 (configuration not stated)
Second: CCC(Cc1ccc(OC)c(OCCc2ccccc2)c1)NC(=O)OC(C)(C)C (configuration not stated)
The melting point of the first is higher: 142 to 143 °C for the first, 88.5 to 89.5 °C for the second.

First: CCOC(=O)c1ccc(N(NC(C)=O)C(=O)OC(C)(C)C)cc1
Second: CCCC[C@@H](NC(=O)[C@H](Cc1ccc(O)cc1)NC(=O)OC(C)(C)C)C(=O)NCC(=O)O
The melting point of the first is lower: 105 to 108 °C for the first, 174 to 175 °C for the second.

First: Cc1cc2ncnc(N3CCc4ccc(Cl)cc43)c2cc1C
Second: Cc1c(C)n(Cc2ccccc2)c2ncnc(Nc3cccc(Cl)c3)c12
The melting point of the first is higher: 199 °C for the first, 132 to 133 °C for the second.

CC(=S)NCC1CN(c2ccc(-n3cnc(Cn4ccnc4)c3)c(F)c2)C(=O)O1 (configuration not stated) and Cc1cccc(CCC(=O)Cn2ccnc2)c1 fall in the same range of melting point: 160 to 162 °C for the first, 160 to 162 °C for the second.

Compared with CN(C)C(=N)Nc1ccccc1-c1cccc(S(C)(=O)=O)c1, COc1cc(S(C)(=O)=O)ccc1-c1nc(C)c(-c2cccnc2)[nH]1 is higher in melting point: 113 to 114 °C for the first, 115 to 118 °C for the second.

First: Cc1ccc2cccc(OCc3c(Cl)ccc(N)c3C#N)c2n1
Second: CC(=O)OCc1c(Br)cccc1N1Cc2cc(N(C)C)ccc2C1=O
The melting point of the first is higher: 248 to 251 °C for the first, 93 to 95 °C for the second.

First: O=C1N(Cc2ccco2)c2ccccc2C12COc1cc3c(cc12)OCO3 (configuration not stated)
Second: COc1ccc(-c2ncccc2C=C(Cc2cc3c(cc2OC)OCO3)C(=O)O)c(OCc2ccccc2C(=O)O)c1
The melting point of the first is lower: 110 to 112 °C for the first, 135 to 140 °C for the second.

Compared with C[C@]1(COc2ccc(N3CCN(CC=Cc4ccc(Cl)c(Cl)c4)CC3)cc2)Cn2cc([N+](=O)[O-])nc2O1, COc1ccc(Cl)cc1N1CCN(CCCNC(=O)c2c(-c3ccccc3)noc2C)CC1 is lower in melting point: 205 to 206 °C for the first, 139 to 142 °C for the second.

First: CCCCNC(=O)CN1C(=O)C(NC(=O)OCc2ccccc2)N=C(c2ccccc2)c2ccccc21 (configuration not stated)
Second: COC(=O)COc1cccc(OCCC(c2ccccc2)(c2ccccc2)c2ccccc2)c1
The melting point of the first is higher: 127 to 129 °C for the first, 103 to 105 °C for the second.

COc1ccc(OCC(O)CN2CCC(C3Oc4ccccc4Cn4cccc43)CC2)cc1 (configuration not stated) and COc1ccc(NS(=O)(=O)c2ccc(N3CCC(NC[C@H](O)COc4ccc(OCc5ccccc5)cc4)CC3)cc2)cc1OC cannot be ordered by melting point: 95 to 120 °C for the first, 113 to 121 °C for the second.

First: O=C(CCl)Nc1ccccc1C(=O)c1ccccc1C(F)(F)F
Second: CCCOc1ccccc1C(=O)Nc1cnccc1C(N)=O
The melting point of the first is lower: 79 to 81 °C for the first, 181 to 183 °C for the second.

First: COc1ccc2nc(-c3ccc(OC)c(F)c3)c(Cl)c(Br)c2c1
Second: COc1ccc(-c2cc(-c3ccc(F)cc3)c3c(=O)n(C)c(=O)n(C)c3n2)cc1
The melting point of the first is lower: 197 to 199 °C for the first, 240 to 243 °C for the second.

First: CC(C)(O)C1CCN(Cc2ccc(COc3cccc4c3CN(C3CCC(=O)NC3=O)C4=O)cc2)CC1 (configuration not stated)
Second: COc1cc2c(cc1Br)C(=CNc1ccc(CN3CCCCC3)cc1)C(=O)NC2=O
The melting point of the first is lower: 160 to 162 °C for the first, 264 to 267 °C for the second.

First: CC(C)(C)OC(=O)NCC(=O)Oc1cc(Cl)c(Cl)cc1Cl
Second: CC(C)(C)OC(=O)NCCS(=O)(=O)Nc1ccc2c(c1)C(=O)Nc1cccnc1N2
The melting point of the first is lower: 100 to 103 °C for the first, 195 to 198 °C for the second.

First: O=C(O)CCOCCCc1ccc(-c2nc(=O)c3ccccc3s2)nc1
Second: CCCCn1c(=O)c(=O)[nH]c2c3ccccc3ccc21
The melting point of the first is lower: 145 to 147 °C for the first, 269 °C for the second.

First: COc1cc2c(c3c1C1CCC3CC1)OC(COS(=O)(=O)c1ccc(C)cc1)C2 (configuration not stated)
Second: COC(=O)C1=C(N)NC(C)=C([N+](=O)[O-])C1c1ccccc1S(=O)(=O)CCCCN1CCN(c2ccccc2OC)CC1 (configuration not stated)
The melting point of the first is lower: 136 to 141 °C for the first, 145 to 147 °C for the second.

First: CSc1nc(Cl)cc(N(C)C)n1
Second: CC(C)=CCC/C(C)=C/CSc1nc2cc(F)c(Cl)cc2[nH]1
The melting point of the first is lower: 102 °C for the first, 122 to 124 °C for the second.

First: CC(n1cncn1)C(O)(Cn1cncn1)c1ccc(Cl)cn1 (configuration not stated)
Second: CC1CCCN(c2nc(-n3cncn3)nc(Cl)c2-c2c(F)cc(F)cc2F)O1 (configuration not stated)
The melting point of the first is higher: 156 to 157 °C for the first, 141 to 143 °C for the second.

First: N#Cc1ccc(CNc2cc(C(N)=O)c([N+](=O)[O-])cc2[N+](=O)[O-])cc1
Second: CCOC(=O)C1CCc2sc3ccc(C#N)cc3c2C1 (configuration not stated)
The melting point of the first is higher: 201 to 203 °C for the first, 121 to 122 °C for the second.

First: CCn1cc(C(=O)O)c(=O)c2cc(Cl)c(N3CCOCC3)cc21
Second: Cc1cn(C)c(=O)n(-c2cc(C(=O)OC(C)C)c(Cl)cc2F)c1=O
The melting point of the first is higher: 266 °C for the first, 177 to 180 °C for the second.

Compared with Cc1cc(Cc2cnc(NCCSCc3cc(CN(C)C)ccn3)[nH]c2=O)cnc1C, CCc1c(-c2ccc(O)cc2)c2c(CN(C)C)cc3cccc1n32 is higher in melting point: 72 to 78 °C for the first, 176 to 178 °C for the second.

First: c1ccc(COc2ccc(-c3ccc(OCCCN4CCCCC4)cc3)nn2)cc1
Second: COc1ccc(Nc2ccccc2C(=O)N2CCCCC2)cc1
The melting point of the first is higher: 138 °C for the first, 106 to 108 °C for the second.

Compared with CC(C)(C)[Si](C)(C)N1C(=O)CC1SC(c1ccccc1)(c1ccccc1)c1ccccc1 (configuration not stated), O=C1NC(=O)C(N2C(=O)c3ccccc3C2=O)CC1c1ccccc1 (configuration not stated) is higher in melting point: 113 to 114 °C for the first, 228 to 231 °C for the second.

Compared with CNc1nc(C)c(-c2nc3ccccc3c(=O)n2-c2ccc(C(C)=O)cc2)s1, O=C(O)c1ccc(Cc2nc3ccccc3[nH]2)cc1 is higher in melting point: 245 to 246 °C for the first, 265 to 267 °C for the second.

First: CN1CCCC(COc2ccc(C(=O)NN)cc2)C1 (configuration not stated)
Second: N=C(N)c1ccc2cc(OC(=O)[C@H]3CC[C@H](CN)CC3)ccc2c1
The melting point of the first is higher: 170 to 172 °C for the first, 147 °C for the second.

Compared with CCCNC(C)=C1C(=O)OC(=O)C(C(C)=O)=C1O, CCCc1c(OCCCSc2nc3ccc(C(=O)O)cc3[nH]2)ccc(C(C)=O)c1OC(C)=O is lower in melting point: 145 to 148 °C for the first, 85 to 87 °C for the second.

Compared with O=C(c1ccccc1)c1ccc(-c2ccc(CBr)cc2)cc1, O=C(O)COc1ccc(C(=CC(=O)NCc2cccnc2)c2ccccc2)cc1 is higher in melting point: 110 to 112 °C for the first, 187 to 189 °C for the second.

Compared with COC(=O)/C=C/c1ccc(-c2nc(NC(C)=O)sc2Cc2ccc(S(C)(=O)=O)cc2)cc1, Cc1nc2c(OCc3c(Cl)ccc(S(=O)(=O)N4CCC[C@H]4C(=O)NCCCNC(=O)c4ccc(C=NN)cc4)c3Cl)cccn2c1Cl is lower in melting point: 217 to 218 °C for the first, 115 °C for the second.

Compared with Cc1nccnc1C(=O)Nc1ccc(C(C(F)(F)F)C(F)(F)F)c(CC(C)C)c1, Cc1cc(-c2ccccc2)n2nc(C(F)(F)F)c(C#N)c2n1 is higher in melting point: 133 to 134 °C for the first, 143 to 148 °C for the second.

Compared with CC(=O)OCC1=C(C(=O)OCOC(=O)C(C)(C)C)N2C(=O)C(NC(=O)Cc3csc(=O)s3)C2SC1 (configuration not stated), CCOC(=NC(=O)OC)NC(=O)Nc1cc(C(=O)OC)c(Cl)cc1F is lower in melting point: 135 °C for the first, 105 to 107 °C for the second.

First: N#Cc1cc(NCc2cc3c(cc2O)CCO3)cs1
Second: COC(=O)c1cc(CBr)cc(C2(C#N)CC2)c1
The melting point of the first is higher: 138 to 139 °C for the first, 78.3 to 79.8 °C for the second.

Cc1ccc(NC(=O)c2ccc(CN3C[C@@H](C)N[C@@H](C)C3)c(Br)c2)cc1Nc1nccc(-c2cccnc2)n1 and Cc1ccccc1C(=O)Nc1ccc(C(=O)N2CCCC(CO)c3ccccc32)cc1 (configuration not stated) cannot be ordered by melting point: 204 to 205 °C for the first, 202 to 206 °C for the second.

First: COc1cc(I)c(O)c(C=O)c1
Second: COc1cc2c(c([N+](=O)[O-])c1)NCCC2=O
The melting point of the first is lower: 103 to 105 °C for the first, 161 to 162 °C for the second.

First: CCCn1cc2c(C3C(=O)Nc4ccc(Br)cc43)nc(Cl)nc2n1 (configuration not stated)
Second: O=C(O)CCc1cnoc1-c1ccc(Cl)c(Br)c1
The melting point of the first is higher: greater than 300 °C for the first, 177 to 180 °C for the second.

First: CCC1CCc2c(sc3cc(NC(C)=O)ccc3c2=O)C1 (configuration not stated)
Second: CCCOc1ccc(CCCOc2ccc3c(c2)C=C(C(=O)Nc2ccc(CN(C)C4CCOCC4)cc2)CCS3(=O)=O)cc1
The melting point of the first is higher: 243 °C for the first, 178 to 181 °C for the second.

First: N#Cc1ccc2c(c1)C(=C(Cl)Cl)OC(C(Cl)(Cl)Cl)O2 (configuration not stated)
Second: N#Cc1c(Cl)c(Cl)n(CC#CI)c1-c1ccc(Cl)c(Cl)c1
The melting point of the first is higher: 125 to 126 °C for the first, 115 to 116 °C for the second.

Compared with CCCCCCCCCCOc1ccc(CO)cc1OCCCCCCCCCC, CCCCCCCCCCC(=O)N[C@H]1CCCNC(=O)C1 is higher in melting point: 41 to 42.5 °C for the first, 91 to 92 °C for the second.

First: CC(C)(C)c1nc(C(=O)c2cc[nH]n2)nc(C(C)(C)C)c1O
Second: Cc1c(NC(=O)CC(C)(C)C)c(C)c2c(c1-c1c[nH]cn1)OCC2c1ccc(C(C)C)cc1 (configuration not stated)
The melting point of the first is lower: 156 to 161 °C for the first, 277 to 279 °C for the second.

Compared with O=C(CCCS(=O)c1ccccc1)NO (configuration not stated), O=C1N(c2ccccc2)CC(CCl)C1(Cl)Cl (configuration not stated) is higher in melting point: 61 to 62 °C for the first, 133 to 134 °C for the second.

First: CN1CCC(c2cccc(Cl)c2)(C(C)(C)O)CC1
Second: COC(=O)C1(NC(=O)Cc2cc(-c3ccc(Cl)cc3)ccc2Cl)CCCC(C(F)(F)F)C1 (configuration not stated)
The melting point of the first is higher: 149 to 150 °C for the first, 148 °C for the second.

First: CC[C@H](COCC#Cc1ccccc1)n1cnc2c(N)nc3ccccc3c21
Second: CSCc1noc(C(C)c2ccc(-c3ccccc3)c(F)c2)n1 (configuration not stated)
The melting point of the first is higher: 63 to 67 °C for the first, 55.5 to 56 °C for the second.

Compared with O=C(NCCCCCCCNC(=O)c1ccc(OC(Cl)(Cl)Cl)cc1)c1ccc(OC(Cl)(Cl)Cl)cc1, CCCc1c(OCCCCCOc2c(C)c(C)c3c(c2C)CC[C@](C)(C(=O)O)O3)ccc(C(C)=O)c1O is lower in melting point: 152 to 153 °C for the first, 92.5 to 95 °C for the second.

Going from O=Cc1cnc2c(OCc3ccccc3)cccn12 to Oc1ccc(C=C2C3=CC=CCC3=CCc3ccccc32)cc1, the melting point falls from 167 °C to 56.9 °C.

First: Nc1cc(C(=O)c2ccc(F)c(N)c2)ccc1F
Second: Nc1cc2c(cc1Br)-c1cc(Br)c(N)cc1S2(=O)=O
The melting point of the first is lower: 131 to 132 °C for the first, greater than 355 °C for the second.

First: N#CSCC(Cl)=C(Cl)CCl
Second: CCC[C@H]1CC[C@H]([C@H]2CC[C@H](c3ccc(C#N)cc3)CC2)CC1
The melting point of the first is higher: 60 to 63 °C for the first, 55 °C for the second.

Compared with CC(C)(C)c1nc2c(Cl)ccc(-n3c(=O)cc(C(F)(F)F)n(N)c3=O)c2o1, Cc1cncn1-c1cc(C#N)cc(C(F)(F)F)c1 is lower in melting point: 104 to 106 °C for the first, 99 to 101 °C for the second.

With Brc1cn2cncc2s1 the melting point was 77 to 78 °C.
